# Data reported in patent publication US20130317037A1, “METHOD OF ADMINISTRATION AND TREATMENT” (GlaxoSmithKline Intellectual Property Development Limited, priority 2010, published 2013).
# pIC50: −log10 of the molar value.
# Tests used:
# Type in all cases: cell-based
# HCC1500 = assay: cells
# Procedure: (§1) From the stock concentration, 8 serial dilutions (1:5) were made with DMSO.
# (§2) Day −1: Plate cells in 100 μl volume in 96 well plate. • Note: Cell number seeded adjusted for growth characteristics, so that at time of assay for proliferation following three-day drug treatment, the control wells should still be in log-growth phase (sub-confluent). Day 0: Drug added to plate for treatment. • A time 0 plate was processed for the proliferation assay to establish a baseline reading at time when drug was added.
# (§3) LBNL are following the protocols set up by the NCI/NIH DTP Human Tumor Cell Line Screen Process (http://dtp.nci.nih.gov/branches/btb/ivclsp.html) and summarized below.
# (§4) [(Ti−Tz)/(C−Tz)]×100 for concentrations for which Ti>/=Tz
# (§5) [(Ti−Tz)/(C−Tz)]×100=50, • which is the drug concentration resulting in a 50% reduction in the net growth in control cells during the drug incubation. TGI: Total growth inhibition is calculated from
# (§6) Ti=Tz. • The drug concentration resulting in total growth inhibition (down to the ‘time 0’ baseline). LC50: Net loss of cell growth at 50% is calculated from
# (§7) [(Ti−Tz)/Tz]×100=−50. • The concentration of drug resulting in a 50% reduction in the cell number at the end of the drug treatment as compared to that at the beginning (time 0) indicating a net loss of cells following treatment.
# (§8) Values are calculated for each of these three parameters if the level of activity is reached; however, if the effect is not reached or is exceeded, the value for that parameter is expressed as greater or less than the maximum or minimum concentration tested.
# HCC1806 = assay: cells
# Procedure: as §1, §2, §3, §4, §5, §6, §7, §8
# HCC3153 = assay: cells
# Procedure: as §1, §2, §3, §4, §5, §6, §7, §8
# 184B5 = assay: in vitro
# Procedure: as §1, §2, §3, §4, §5, §6, §7, §8
# MDAMB231 = assay: cells
# Procedure: as §1, §2, §3, §4, §5, §6, §7, §8
# M4A4 = assay: cells
# Procedure: as §1, §2, §3, §4, §5, §6, §7, §8
# MDAMB453 = assay: cells
# Procedure: as §1, §2, §3, §4, §5, §6, §7, §8
# BT483 = assay: cells
# Procedure: as §1, §2, §3, §4, §5, §6, §7, §8
# LY2 = assay: cells
# Procedure: as §1, §2, §3, §4, §5, §6, §7, §8
# SUM149PT = assay: cells
# Procedure: as §1, §2, §3, §4, §5, §6, §7, §8
# SKBR3 = assay: cells
# Procedure: as §1, §2, §3, §4, §5, §6, §7, §8
# SUM225CWN = assay: cells
# Procedure: as §1, §2, §3, §4, §5, §6, §7, §8
# MDAMB134 = assay: cells
# Procedure: as §1, §2, §3, §4, §5, §6, §7, §8
# MDAMB415 = assay: cells
# Procedure: as §1, §2, §3, §4, §5, §6, §7, §8
# SUM229PE = assay: cells
# Procedure: as §1, §2, §3, §4, §5, §6, §7, §8
# HCC1428 = assay: cells
# Procedure: as §1, §2, §3, §4, §5, §6, §7, §8
# T47D = assay: cells
# Procedure: as §1, §2, §3, §4, §5, §6, §7, §8
# HCC38 = assay: cells
# Procedure: as §1, §2, §3, §4, §5, §6, §7, §8
# HCC1937 = assay: cells
# Procedure: as §1, §2, §3, §4, §5, §6, §7, §8
# CAMA1 = assay: cells
# Procedure: as §1, §2, §3, §4, §5, §6, §7, §8
# BT549 = assay: cells
# Procedure: as §1, §2, §3, §4, §5, §6, §7, §8
# HCC1419 = assay: cells
# Procedure: as §1, §2, §3, §4, §5, §6, §7, §8
# [1] = Homo sapiens, 50% net loss of cells vs time 0, read-out: LC50 (the source's name)
# [2] = Homo sapiens, 72 h, three-day drug treatment, read-out: gIC50
smiles,measurement,setting,value
"COc1ncc(-c2ccc3nccc(-c4ccnnc4)c3c2)cc1NS(=O)(=O)c1ccc(F)cc1F [Compound B, 2,4-difluoro-N-{2-(methyloxy)-5-[4-(4-pyridazinyl)-6-quinolinyl]-3-pyridinyl}benzenesulfonamide]",TGI,"HCC1500; HCC1500, total growth inhibition",371.5 nM
same,pIC50,"HCC1500; Homo sapiens, 72 h, HCC1500, three-day drug treatment, read-out: gIC50",7.12
same,CC50,"HCC1500; Homo sapiens, HCC1500, 50% net loss of cells vs time 0, read-out: LC50 (the source's name)",6500 nM
same,TGI,"HCC1806; HCC1806, total growth inhibition",375.1 nM
same,pIC50,"HCC1806; Homo sapiens, 72 h, HCC1806, three-day drug treatment, read-out: gIC50",7.58
same,CC50,"HCC1806; Homo sapiens, HCC1806, 50% net loss of cells vs time 0, read-out: LC50 (the source's name)",2820 nM
same,TGI,"HCC3153; HCC3153, total growth inhibition",281.8 nM
same,pIC50,"HCC3153; Homo sapiens, 72 h, HCC3153, three-day drug treatment, read-out: gIC50",7.41
same,CC50,"HCC3153; Homo sapiens, HCC3153, 50% net loss of cells vs time 0, read-out: LC50 (the source's name)",≥ 35500 nM
same,TGI,"184B5; 184B5, total growth inhibition",46.3 nM
same,pIC50,"184B5; Homo sapiens, 72 h, 184B5, three-day drug treatment, read-out: gIC50",8.25
same,pIC50,"MDAMB231; Homo sapiens, MDA-MB-231, 72 h, MDAMB231, three-day drug treatment, read-out: gIC50",6.96
same,CC50,"MDAMB231; Homo sapiens, MDA-MB-231, MDAMB231, 50% net loss of cells vs time 0, read-out: LC50 (the source's name)",> 33000 nM
same,TGI,"MDAMB231; MDAMB231, total growth inhibition",>33000.0 nM
same,pIC50,"M4A4; Homo sapiens, 72 h, M4A4, three-day drug treatment, read-out: gIC50",7.52
same,CC50,"M4A4; Homo sapiens, M4A4, 50% net loss of cells vs time 0, read-out: LC50 (the source's name)",> 33000 nM
same,TGI,"M4A4; M4A4, total growth inhibition",281.8 nM
same,pIC50,"MDAMB453; Homo sapiens, MDA-MB-453, 72 h, MDAMB453, three-day drug treatment, read-out: gIC50",8.11
same,CC50,"MDAMB453; Homo sapiens, MDA-MB-453, MDAMB453, 50% net loss of cells vs time 0, read-out: LC50 (the source's name)",162 nM
same,TGI,"MDAMB453; MDAMB453, total growth inhibition",54.9 nM
same,TGI,"BT483; BT483, total growth inhibition",8.5 nM
same,pIC50,"BT483; Homo sapiens, BT-483, 72 h, BT483, three-day drug treatment, read-out: gIC50",8.82
same,CC50,"BT483; Homo sapiens, BT-483, BT483, 50% net loss of cells vs time 0, read-out: LC50 (the source's name)",1170 nM
same,pIC50,"LY2; Homo sapiens, 72 h, LY2, three-day drug treatment, read-out: gIC50",7.96
same,TGI,"LY2; LY2, total growth inhibition",30.2 nM
same,CC50,SUM149PT; [1],2600 nM
same,pIC50,SUM149PT; [2],7.69
same,TGI,SUM149PT; total growth inhibition,862.2 nM
same,pIC50,"SKBR3; Homo sapiens, SK-BR-3, 72 h, SKBR3, three-day drug treatment, read-out: gIC50",8.49
same,TGI,"SKBR3; SKBR3, total growth inhibition",199.5 nM
same,CC50,SUM225CWN; [1],436 nM
same,pIC50,SUM225CWN; [2],8.80
same,TGI,SUM225CWN; total growth inhibition,14.8 nM
same,pIC50,"MDAMB134; Homo sapiens, 72 h, MDAMB134, three-day drug treatment, read-out: gIC50",7.88
same,CC50,"MDAMB134; Homo sapiens, MDAMB134, 50% net loss of cells vs time 0, read-out: LC50 (the source's name)",224 nM
same,TGI,"MDAMB134; MDAMB134, total growth inhibition",60.3 nM
same,pIC50,"MDAMB415; Homo sapiens, MDA-MB-415, 72 h, MDAMB415, three-day drug treatment, read-out: gIC50",7.68
same,CC50,"MDAMB415; Homo sapiens, MDA-MB-415, MDAMB415, 50% net loss of cells vs time 0, read-out: LC50 (the source's name)",528 nM
same,TGI,"MDAMB415; MDAMB415, total growth inhibition",117.7 nM
same,CC50,SUM229PE; [1],126 nM
same,pIC50,SUM229PE; [2],8.60
same,TGI,SUM229PE; total growth inhibition,17.4 nM
same,TGI,"HCC1428; HCC1428, total growth inhibition",158.5 nM
same,pIC50,"HCC1428; Homo sapiens, 72 h, HCC1428, three-day drug treatment, read-out: gIC50",7.79
same,CC50,"HCC1428; Homo sapiens, HCC1428, 50% net loss of cells vs time 0, read-out: LC50 (the source's name)",5250 nM
same,CC50,T47D; [1],1000 nM
same,pIC50,T47D; [2],8.43
same,TGI,T47D; total growth inhibition,19.1 nM
same,TGI,"HCC38; HCC38, total growth inhibition",158.5 nM
same,pIC50,"HCC38; Homo sapiens, 72 h, HCC38, three-day drug treatment, read-out: gIC50",7.26
same,CC50,"HCC38; Homo sapiens, HCC38, 50% net loss of cells vs time 0, read-out: LC50 (the source's name)",355 nM
same,TGI,"HCC1937; HCC1937, total growth inhibition",321.7 nM
same,pIC50,"HCC1937; Homo sapiens, 72 h, HCC1937, three-day drug treatment, read-out: gIC50",7.60
same,CC50,"HCC1937; Homo sapiens, HCC1937, 50% net loss of cells vs time 0, read-out: LC50 (the source's name)",≥ 33000 nM
same,TGI,"CAMA1; CAMA1, total growth inhibition",239.9 nM
same,pIC50,"CAMA1; Homo sapiens, CAMA-1, 72 h, CAMA1, three-day drug treatment, read-out: gIC50",7.05
same,CC50,"CAMA1; Homo sapiens, CAMA-1, CAMA1, 50% net loss of cells vs time 0, read-out: LC50 (the source's name)",537 nM
same,TGI,"BT549; BT549, total growth inhibition",>33000.0 nM
same,pIC50,"BT549; Homo sapiens, BT-549, 72 h, BT549, three-day drug treatment, read-out: gIC50",7.37
same,CC50,"BT549; Homo sapiens, BT-549, BT549, 50% net loss of cells vs time 0, read-out: LC50 (the source's name)",> 33000 nM
same,TGI,"HCC1419; HCC1419, total growth inhibition",5.2 nM
same,pIC50,"HCC1419; Homo sapiens, 72 h, HCC1419, three-day drug treatment, read-out: gIC50",8.82
same,CC50,"HCC1419; Homo sapiens, HCC1419, 50% net loss of cells vs time 0, read-out: LC50 (the source's name)",514 nM
